“And” between values parts separate entries of the source, which are not always exact repeats. Equal entries are not always repeated.
Experiments:
Format in all cases: biochemical
[1] = molecular target: receptor tyrosine kinase c-Met (Homo sapiens, UniProt P08581); test: In vitro c-Met kinase inhibitory activity; conditions: two values per compound
Source text: Experimental Example 3: Study of In Vitro c-Met Kinase Inhibitory Activity
Since the screening results of 369 kinase profiles of compound DC621044 has shown that the compound has a certain inhibitory activity on c-Met. We further screened some compounds for their inhibitory activity on c-Met kinase.

[2] = molecular target: T1, receptor tyrosine kinase AXL (Homo sapiens, UniProt P30530); test: Enzyme activity of receptor tyrosine kinase AXL (ELISA)
T1 construct: 50 μL of AXL kinase domain recombinant protein diluted in reaction buffer was added to start the reaction; made in house; host or cells: insect cells (baculovirus expression system)
T1 sequence (P30530 536-807 limits assumed): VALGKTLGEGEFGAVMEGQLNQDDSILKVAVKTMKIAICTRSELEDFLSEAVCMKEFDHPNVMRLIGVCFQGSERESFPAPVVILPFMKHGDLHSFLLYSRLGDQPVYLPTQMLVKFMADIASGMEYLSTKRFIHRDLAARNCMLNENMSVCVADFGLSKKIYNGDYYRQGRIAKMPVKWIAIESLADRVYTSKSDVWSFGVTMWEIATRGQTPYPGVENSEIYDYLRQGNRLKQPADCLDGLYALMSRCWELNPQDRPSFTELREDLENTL
Summary of the method: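 AXL kinase domain recombinant protein reacted with ATP and compound (1% DMSO) in 50 mM HEPES pH 7.4, 50 mM MgCl2, 0.5 mM MnCl2, 0.2 mM Na3VO4, 1 mM DTT, 1 hour at 37° C. Phosphorylation detected by ELISA with HRP anti-mouse secondary, read at 490 nm; IC50 by four-parameter regression.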

EGFR = EGFR (Homo sapiens, UniProt P00533); test: Kinase profile screen: EGFR; conditions: 50 nM
Chain of EGFR (P00533 25-1210, species assumed): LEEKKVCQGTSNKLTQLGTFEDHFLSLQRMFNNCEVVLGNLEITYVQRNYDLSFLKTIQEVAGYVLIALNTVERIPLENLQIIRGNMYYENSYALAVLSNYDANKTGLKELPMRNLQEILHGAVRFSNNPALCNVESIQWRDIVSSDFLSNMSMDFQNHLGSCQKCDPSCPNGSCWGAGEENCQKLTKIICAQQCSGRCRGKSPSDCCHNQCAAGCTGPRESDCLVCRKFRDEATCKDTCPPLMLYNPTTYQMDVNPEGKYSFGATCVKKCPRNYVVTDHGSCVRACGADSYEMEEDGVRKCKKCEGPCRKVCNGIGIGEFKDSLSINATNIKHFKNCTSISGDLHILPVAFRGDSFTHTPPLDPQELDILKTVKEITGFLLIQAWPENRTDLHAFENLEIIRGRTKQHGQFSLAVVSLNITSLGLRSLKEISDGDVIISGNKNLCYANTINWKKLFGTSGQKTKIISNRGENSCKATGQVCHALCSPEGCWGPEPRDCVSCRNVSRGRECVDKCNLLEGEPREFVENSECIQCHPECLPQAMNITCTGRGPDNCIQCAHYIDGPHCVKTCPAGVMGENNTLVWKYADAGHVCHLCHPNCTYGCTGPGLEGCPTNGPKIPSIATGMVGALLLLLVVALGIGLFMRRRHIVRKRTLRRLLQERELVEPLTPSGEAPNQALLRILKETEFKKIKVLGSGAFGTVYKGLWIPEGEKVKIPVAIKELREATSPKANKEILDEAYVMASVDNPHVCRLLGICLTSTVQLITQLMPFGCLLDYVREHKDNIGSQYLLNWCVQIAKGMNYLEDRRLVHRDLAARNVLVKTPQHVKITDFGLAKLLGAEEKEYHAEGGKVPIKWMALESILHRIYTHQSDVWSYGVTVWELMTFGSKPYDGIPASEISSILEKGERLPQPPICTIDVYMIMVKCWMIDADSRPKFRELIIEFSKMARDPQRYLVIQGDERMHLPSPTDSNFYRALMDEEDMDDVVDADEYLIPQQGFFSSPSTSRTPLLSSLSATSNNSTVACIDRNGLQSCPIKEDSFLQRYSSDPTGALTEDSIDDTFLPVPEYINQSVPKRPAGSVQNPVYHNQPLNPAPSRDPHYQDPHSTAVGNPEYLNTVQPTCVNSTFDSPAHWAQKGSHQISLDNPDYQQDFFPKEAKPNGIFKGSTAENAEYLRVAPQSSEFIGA
Source text: (§1) Experimental Example 2: Study on the Selectivity of the Kinase Profile of the Compound Due to compound's potent inhibitory activity against AXL, we selected one of the compounds, DC621044, to screen 369 kinase profiles in order to investigate the compound's selectivity to the kinase profile.

LCK = LCK (Homo sapiens, UniProt P06239); test: Kinase profile screen: LCK; conditions: 50 nM
Chain of LCK (P06239 whole entry, species assumed): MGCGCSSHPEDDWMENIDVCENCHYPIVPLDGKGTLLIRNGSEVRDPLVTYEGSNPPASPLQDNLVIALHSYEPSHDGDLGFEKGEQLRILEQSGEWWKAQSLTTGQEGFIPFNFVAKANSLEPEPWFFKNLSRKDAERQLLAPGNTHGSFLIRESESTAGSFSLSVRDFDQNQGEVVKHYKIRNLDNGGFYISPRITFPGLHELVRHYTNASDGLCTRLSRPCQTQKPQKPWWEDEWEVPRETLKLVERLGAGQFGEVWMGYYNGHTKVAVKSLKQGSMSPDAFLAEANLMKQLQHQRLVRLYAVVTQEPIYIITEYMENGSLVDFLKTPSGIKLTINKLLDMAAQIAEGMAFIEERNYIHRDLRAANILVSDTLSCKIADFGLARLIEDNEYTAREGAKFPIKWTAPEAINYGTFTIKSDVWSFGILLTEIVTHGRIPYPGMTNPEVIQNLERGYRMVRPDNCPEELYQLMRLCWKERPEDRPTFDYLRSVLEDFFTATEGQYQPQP
Source text: as §1

IRR/INSRR = IRR/INSRR (Homo sapiens, UniProt P14616); test: Kinase profile screen: IRR/INSRR; conditions: 50 nM
Chain of IRR/INSRR (P14616 27-1297): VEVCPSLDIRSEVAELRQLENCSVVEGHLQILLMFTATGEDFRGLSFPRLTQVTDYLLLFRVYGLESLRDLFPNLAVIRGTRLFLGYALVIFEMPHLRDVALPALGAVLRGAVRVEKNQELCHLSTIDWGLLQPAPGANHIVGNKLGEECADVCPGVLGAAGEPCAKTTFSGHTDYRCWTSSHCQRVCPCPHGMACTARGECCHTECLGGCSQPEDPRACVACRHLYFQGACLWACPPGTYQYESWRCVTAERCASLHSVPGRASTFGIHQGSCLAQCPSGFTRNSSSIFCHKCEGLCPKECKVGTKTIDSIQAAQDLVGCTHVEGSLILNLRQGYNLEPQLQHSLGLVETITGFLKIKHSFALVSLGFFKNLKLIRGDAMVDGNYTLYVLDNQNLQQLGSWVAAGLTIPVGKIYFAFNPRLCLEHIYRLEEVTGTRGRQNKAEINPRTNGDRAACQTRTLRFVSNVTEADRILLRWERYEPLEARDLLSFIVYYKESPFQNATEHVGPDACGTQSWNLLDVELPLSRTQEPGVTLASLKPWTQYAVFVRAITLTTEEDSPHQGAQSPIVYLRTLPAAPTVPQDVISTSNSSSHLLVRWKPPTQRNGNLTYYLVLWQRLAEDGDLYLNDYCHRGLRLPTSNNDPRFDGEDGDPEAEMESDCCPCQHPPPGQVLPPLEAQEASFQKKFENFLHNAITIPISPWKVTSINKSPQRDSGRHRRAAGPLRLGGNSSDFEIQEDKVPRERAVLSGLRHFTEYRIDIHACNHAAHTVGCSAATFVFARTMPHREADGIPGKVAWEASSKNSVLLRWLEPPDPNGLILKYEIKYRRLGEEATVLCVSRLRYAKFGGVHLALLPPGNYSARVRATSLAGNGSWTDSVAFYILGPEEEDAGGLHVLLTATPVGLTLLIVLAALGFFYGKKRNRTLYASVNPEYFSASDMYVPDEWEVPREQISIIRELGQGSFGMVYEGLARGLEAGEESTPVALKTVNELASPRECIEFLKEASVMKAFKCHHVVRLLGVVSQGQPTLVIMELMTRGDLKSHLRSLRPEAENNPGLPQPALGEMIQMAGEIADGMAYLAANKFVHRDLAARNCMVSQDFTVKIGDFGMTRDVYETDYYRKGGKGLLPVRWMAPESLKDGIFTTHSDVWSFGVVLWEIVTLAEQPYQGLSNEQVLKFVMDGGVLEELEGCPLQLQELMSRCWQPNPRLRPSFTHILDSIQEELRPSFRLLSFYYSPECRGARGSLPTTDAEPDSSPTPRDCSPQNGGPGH
Source text: as §1

369 kinases = test: Selectivity of the kinase profile (369 kinases); conditions: 369 kinases screened
Source text: as §1

Chain of receptor tyrosine kinase c-Met (P08581 25-1390): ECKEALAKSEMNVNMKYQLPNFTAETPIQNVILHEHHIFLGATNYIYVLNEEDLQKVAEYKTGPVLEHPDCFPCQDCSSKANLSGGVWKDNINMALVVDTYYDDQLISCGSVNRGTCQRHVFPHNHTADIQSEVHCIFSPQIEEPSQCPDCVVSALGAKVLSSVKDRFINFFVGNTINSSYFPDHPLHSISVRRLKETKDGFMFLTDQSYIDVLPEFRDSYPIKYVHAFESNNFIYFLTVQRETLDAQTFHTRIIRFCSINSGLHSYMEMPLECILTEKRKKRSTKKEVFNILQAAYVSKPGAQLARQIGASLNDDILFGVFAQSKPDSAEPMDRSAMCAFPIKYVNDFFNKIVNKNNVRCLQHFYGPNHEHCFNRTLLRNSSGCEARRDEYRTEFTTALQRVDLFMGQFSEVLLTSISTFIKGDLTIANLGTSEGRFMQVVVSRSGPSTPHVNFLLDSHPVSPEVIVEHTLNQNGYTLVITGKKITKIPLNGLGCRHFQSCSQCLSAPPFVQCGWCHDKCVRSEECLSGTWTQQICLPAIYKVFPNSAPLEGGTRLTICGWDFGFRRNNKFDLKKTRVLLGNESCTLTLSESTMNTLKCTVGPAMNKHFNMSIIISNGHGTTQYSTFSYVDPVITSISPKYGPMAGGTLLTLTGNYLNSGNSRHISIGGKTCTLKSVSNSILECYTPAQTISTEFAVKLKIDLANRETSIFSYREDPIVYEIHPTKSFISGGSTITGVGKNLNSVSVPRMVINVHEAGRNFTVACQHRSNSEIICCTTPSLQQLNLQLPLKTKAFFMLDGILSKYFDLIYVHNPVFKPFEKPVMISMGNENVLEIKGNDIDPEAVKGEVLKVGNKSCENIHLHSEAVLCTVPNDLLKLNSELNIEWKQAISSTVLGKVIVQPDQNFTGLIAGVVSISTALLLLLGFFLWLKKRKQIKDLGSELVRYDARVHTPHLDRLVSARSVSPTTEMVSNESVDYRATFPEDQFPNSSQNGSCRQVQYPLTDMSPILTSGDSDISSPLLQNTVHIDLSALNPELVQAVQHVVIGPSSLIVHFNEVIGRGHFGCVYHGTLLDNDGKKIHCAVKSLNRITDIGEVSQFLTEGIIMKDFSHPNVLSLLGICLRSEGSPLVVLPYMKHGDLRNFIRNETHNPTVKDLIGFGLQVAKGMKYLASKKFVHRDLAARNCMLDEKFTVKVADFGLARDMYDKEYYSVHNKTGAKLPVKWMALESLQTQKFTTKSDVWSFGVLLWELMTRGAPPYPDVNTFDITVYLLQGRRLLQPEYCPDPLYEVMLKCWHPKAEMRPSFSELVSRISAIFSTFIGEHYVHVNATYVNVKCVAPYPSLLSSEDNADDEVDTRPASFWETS

c-Met Inhibitory rate (%) ([1]; 1 nM, 0.001 µM): 30.6% and 52.3% | c-Met Inhibitory rate (%) ([1]; 10 nM, 0.01 µM): 75.1% | inhibition at 0.01 µM ([1]; 10 nM, read-out: c-Met Inhibitory rate (%)): 69.4% | c-Met Inhibitory rate (%) ([1]; 100 nM, 0.1 µM): 100% | inhibition at 0.1 µM ([1]; 100 nM, read-out: c-Met Inhibitory rate (%)): 97.1% | IC50 [2]: 7.6 ± 0.3 nM | inhibition at 0.001 µM ([2]; 1 nM, read-out: AXL activity Inhibitory rate(%)): 20.7% | inhibition at 0.01 µM ([2]; 10 nM, read-out: AXL activity Inhibitory rate(%)): 61.2% | inhibition at 0.1 µM ([2]; 100 nM, read-out: AXL activity Inhibitory rate(%)): 80.7% | inhibition at 0.05 µM (EGFR; the first time): 17.9% | inhibition at 0.05 µM (EGFR; the second time): 18.6% | inhibition at 0.05 µM (LCK; the first time): 52.8% | inhibition at 0.05 µM (LCK; the second time): 53.1% | inhibition at 0.05 µM (IRR/INSRR; the first time): 25.8% | inhibition at 0.05 µM (IRR/INSRR; the second time): 28.3% | kinase profile selectivity (in words) (369 kinases): good selectivity for AXL kinase
Structure (SMILES): COCCOc1cc2ncnc(Oc3ccc(NC(=O)c4c5n(n(-c6ccc(F)cc6)c4=O)CCCC5)cc3F)c2cc1OCCOC [DC621044, N-(4-((6,7-bis(2-methoxyethoxy)quinazolin-4-yl)oxy)-3-fluorophenyl)-1-(4-fluorophenyl)-2-oxo-1,2,4,5,6,7-hexahydropyrazolo[1,5-a]pyridine-3-formamide]

Reference: patent US12497394B2, “Fused-cyclic pyrazolone formamide compound and preparation method therefor, pharmaceutical composition and use thereof” (SHANGHAI INSTITUTE OF MATERIA MEDICA, CHINESE ACADEMY OF …, priority 2018, dated 2025)
